Patent publication US20180251431A1 (VERTEX PHARMACEUTICALS INCORPORATED, priority 2016, published 2018)
Like-named read-outs stand apart in the source and are kept apart here.

Test system: HEK293 cells
Experiment: HEK293 VLCFA-LPC IC50 determination (13C-labeled C26:0 LPC by UHPLC/MS)
Type: cell-based, human
Conditions: average of one or more replicates, read-out: Average HEK293 IC50
How it was run: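 Suspension HEK293 cells (final 0.5 million/mL after mixing with equal volume) incubated 48 hours with compound plus 13C-acetate (1.0 mg/mL in added media), shaking at 37° C. Lipids extracted with hexane/isopropanol or methanol, C13:0 LPC standard. UHPLC/MS of 13C-labeled C26:0 LPC (638.500/104.100 m/z); IC50 by four-parameter fit.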

[1] = Homo sapiens, HEK293, HEK293 cells
[2] = Homo sapiens, HEK293, 48 h, 13C-labeled C26:0 LPC, 48 hours

| SMILES | IC50 [1] | further results |
| --- | --- | --- |
| O=C(Nc1ccn(-c2ccccc2)n1)C1(c2ccccc2)CCCC1 [Compound 34, 1-phenyl-N-(1-phenylpyrazol-3-yl)cyclopentanecarboxamide] | 2100 nM | – |
| Cc1cn(-c2ccccc2)nc1NC(=O)C1(c2cccc(F)c2)CCC1 [Compound 372, 1-(3-fluorophenyl)-N-(4-methyl-1-phenyl-pyrazol-3-yl)cyclobutanecarboxamide] | – | IC50 [2]: 3700 nM |
| O=C(Nc1ccn(-c2ncco2)n1)C1(c2ccccc2F)CC1 [Compound 375, 1-(2-fluorophenyl)-N-(1-oxazol-2-ylpyrazol-3-yl)cyclopropanecarboxamide] | – | IC50 [2]: 500 nM |
| O=C(Nc1ccn(-c2ccncc2F)n1)C1(c2ccccc2F)CC1 [Compound 137, 1-(2-fluorophenyl)-N-[1-(3-fluoro-4-pyridyl)pyrazol-3-yl]cyclopropanecarboxamide] | 120 nM | – |
| COc1ccc(C2(C(=O)Nc3ccn(-c4ccnc(F)c4)n3)CC2)cc1 [Compound 249, N-[1-(2-fluoro-4-pyridyl)pyrazol-3-yl]-1-(4-methoxyphenyl)cyclopropanecarboxamide] | 640 nM | – |
| O=C(Cc1ccccc1)Nc1ccn(-c2cccnc2)n1 [Compound 213, 2-phenyl-N-(1-(pyridin-3-yl)-1H-pyrazol-3-yl)acetamide] | 1200 nM | – |
| O=C(Cc1ccccc1C(F)(F)F)Nc1ccn(-c2ccccc2)n1 [Compound 52, N-(1-phenylpyrazol-3-yl)-2-[2-(trifluoromethyl)phenyl]acetamide] | 1100 nM | – |
| O=C(Cc1ccc(F)cc1)Nc1ccn(-c2cncnc2)n1 [Compound 97, 2-(4-fluorophenyl)-N-(1-pyrimidin-5-ylpyrazol-3-yl)acetamide] | > 10000 nM | – |
| CC1(C)CC1(C(=O)Nc1ccn(-c2ccncc2)n1)c1ncccc1F (stereo not shown) [Compound 518, 1-(3-fluoro-2-pyridyl)-2,2-dimethyl-N-[1-(4-pyridyl)pyrazol-3-yl]cyclopropanecarboxamide] | 1200 nM | – |
| O=C(Cc1ccccc1)Nc1ccn(-c2cc(F)ccc2F)n1 [Compound 160, N-[1-(2,5-difluorophenyl)pyrazol-3-yl]-2-phenyl-acetamide] | > 5000 nM | – |
| [2H]C1([2H])C([2H])([2H])C1(C(=O)Nc1ccn(-c2ccnc(F)c2)n1)c1ccccc1F [Compound 276, 2,2,3,3-tetradeuterio-1-(2-fluorophenyl)-N-[1-(2-fluoro-4-pyridyl)pyrazol-3-yl]cyclopropanecarboxamide] | 11 nM | – |
| O=C(Nc1ccn(-c2ccccc2)n1)C1(c2ccccc2)CC1(F)F (single isomer, unassigned) [Compound 366] | – | IC50 [2]: 210 nM |
| Cc1cc(NC(=O)C2(c3ccccc3F)CC2)nn1-c1ccccc1 [Compound 386, 1-(2-fluorophenyl)-N-(5-methyl-1-phenyl-1H-pyrazol-3-yl)cyclopropane-1-carboxamide] | > 5000 nM | – |
| O=C(Nc1ccn(-c2cncc(Cl)c2)n1)C1(c2ccccc2F)CC1 [Compound 325, N-[1-(5-chloro-3-pyridyl)pyrazol-3-yl]-1-(2-fluorophenyl)cyclopropanecarboxamide] | – | IC50 [2]: 73 nM |
| O=C(Nc1ccn(-c2ccccc2)n1)[C@@]1(c2ccccc2)CC12CCC2 [Compound 146, (2S)-2-phenyl-N-(1-phenylpyrazol-3-yl)spiro[2.3]hexane-2-carboxamide] | 87 nM | – |
| Cc1ccn(CC(=O)Nc2ccn(-c3ccccc3)n2)n1 [Compound 291, 2-(3-methylpyrazol-1-yl)-N-(1-phenylpyrazol-3-yl)acetamide] | > 5000 nM | – |
| O=C(Nc1ccn(-c2cccnc2)n1)C1(c2ccccc2)CC1 [Compound 234, 1-phenyl-N-[1-(3-pyridyl)pyrazol-3-yl]cyclopropanecarboxamide] | 29 nM | – |
| O=C(Nc1ccn(-c2ccccc2)n1)C1(c2ccccc2Cl)CC1 [Compound 24, 1-(2-chlorophenyl)-N-(1-phenylpyrazol-3-yl)cyclopropanecarboxamide] | 41 nM | – |
| O=C(Cc1ccc(F)c(F)c1F)Nc1ccn(-c2ccccc2)n1 [Compound 74, N-(1-phenylpyrazol-3-yl)-2-(2,3,4-trifluorophenyl)acetamide] | > 5000 nM | – |
| O=C(Nc1nn(-c2ccnc(F)c2)cc1F)C1(c2ccccc2F)CC1 [Compound 365, N-(4-fluoro-1-(2-fluoropyridin-4-yl)-1H-pyrazol-3-yl)-1-(2-fluorophenyl)cyclopropane-1-carboxamide] | – | IC50 [2]: 410 nM |
| O=C(Nc1ccn(-c2cc(F)ncc2F)n1)C1(c2ccccc2F)CC1 [Compound 116, N-[1-(2,5-difluoro-4-pyridyl)pyrazol-3-yl]-1-(2-fluorophenyl)cyclopropanecarboxamide] | 76 nM | – |
| O=C(Cc1ccccc1)Nc1ccn(-c2ccccc2F)n1 [Compound 185, N-[1-(2-fluorophenyl)pyrazol-3-yl]-2-phenyl-acetamide] | 470 nM | – |

| SMILES | IC50 [1] | further results |
| --- | --- | --- |
| O=C(Nc1ccn(-c2ccccc2)n1)C1(c2ccccc2)CC1(Cl)Cl (stereo not shown) [Compound 141, 2,2-dichloro-1-phenyl-N-(1-phenylpyrazol-3-yl)cyclopropanecarboxamide] | 340 nM | – |
| O=C(Nc1ccn(-c2ccccc2)n1)C1(c2ccc(F)cn2)CC1 [Compound 475, 1-(5-fluoro-2-pyridyl)-N-(1-phenylpyrazol-3-yl)cyclopropanecarboxamide] | 270 nM | – |
| Cc1ccnn1CC(=O)Nc1ccn(-c2ccnc(F)c2)n1 [Compound 282, N-[1-(2-fluoro-4-pyridyl)pyrazol-3-yl]-2-(5-methylpyrazol-1-yl)acetamide] | > 2000 nM | – |
| O=C(Cc1cc(F)ccc1F)Nc1ccn(-c2ccccc2)n1 [Compound 59, 2-(2,5-difluorophenyl)-N-(1-phenylpyrazol-3-yl)acetamide] | 250 nM | – |
| O=C(Nc1ccn(-c2ccnc(F)c2)n1)C1(c2ccccc2Cl)CC1 [Compound 251, 1-(2-chlorophenyl)-N-[1-(2-fluoro-4-pyridyl)pyrazol-3-yl]cyclopropanecarboxamide] | 110 nM | – |
| O=C(Nc1ccn(-c2ccnc(OC(F)F)c2)n1)C1(c2ccccc2F)CC1 [Compound 395, N-(1-(2-(difluoromethoxy)pyridin-4-yl)-1H-pyrazol-3-yl)-1-(2-fluorophenyl)cyclopropane-1-carboxamide] | > 5000 nM | – |
| O=C(Nc1ccn(-c2ccc(F)cc2)n1)C1(c2ncccc2F)CC12CC2 (stereo not shown) [Compound 521, N-[1-(4-fluorophenyl)pyrazol-3-yl]-2-(3-fluoro-2-pyridyl)spiro[2.2]pentane-2-carboxamide] | 2300 nM | – |
| Cn1cnnc1-n1ccc(NC(=O)C2(c3ccccc3F)CC2)n1 [Compound 427, 1-(2-fluorophenyl)-N-[1-(4-methyl-1,2,4-triazol-3-yl)pyrazol-3-yl]cyclopropanecarboxamide] | > 2000 nM | – |
| O=C(Nc1ccn(-c2cc(F)cc(F)c2)n1)C1(c2cnccn2)CC1 [Compound 493, N-[1-(3,5-difluorophenyl)pyrazol-3-yl]-1-pyrazin-2-yl-cyclopropanecarboxamide] | > 5000 nM | – |
| COc1ncc(-n2ccc(NC(=O)C3(c4ncccc4F)CC34CC4)n2)cc1F (stereo not shown) [Compound 525, N-[1-(5-fluoro-6-methoxy-3-pyridyl)pyrazol-3-yl]-2-(3-fluoro-2-pyridyl)spiro[2.2]pentane-2-carboxamide] | 680 nM | – |
| COc1cncc(C#N)c1-n1ccc(NC(=O)C2(c3ccccc3F)CC2)n1 [Compound 327, N-[1-(3-cyano-5-methoxy-4-pyridyl)pyrazol-3-yl]-1-(2-fluorophenyl)cyclopropanecarboxamide] | – | IC50 [2]: > 5000 nM |
| O=C(Cc1ccc(F)c(C(F)(F)F)c1)Nc1ccn(-c2ccccc2)n1 [Compound 71, 2-[4-fluoro-3-(trifluoromethyl)phenyl]-N-(1-phenylpyrazol-3-yl)acetamide] | > 5000 nM | – |
| O=C(Nc1ccn(-c2cc(F)ccc2F)n1)C1(c2ccccc2F)CC1 [Compound 161, N-[1-(2,5-difluorophenyl)pyrazol-3-yl]-1-(2-fluorophenyl)cyclopropanecarboxamide] | 980 nM | – |
| O=C(Nc1ccn(-c2cncc(F)c2)n1)C1(c2cccs2)CC1 [Compound 483, N-[1-(5-fluoro-3-pyridyl)pyrazol-3-yl]-1-(2-thienyl)cyclopropanecarboxamide] | < 20 nM | – |
| Cc1cc(-n2ccc(NC(=O)C3(c4ccccc4F)CC3)n2)cc(C#N)n1 [Compound 346, N-[1-(2-cyano-6-methyl-4-pyridyl)pyrazol-3-yl]-1-(2-fluorophenyl)cyclopropanecarboxamide] | – | IC50 [2]: > 5000 nM |
| O=C(Nc1ccn(-c2cnccn2)n1)C1(c2ccccc2)CC1 [Compound 233, 1-phenyl-N-(1-pyrazin-2-ylpyrazol-3-yl)cyclopropanecarboxamide] | 1500 nM | – |
| O=C(Nc1ccn(-c2ccc(Cl)c(F)c2)n1)C1(c2ccccc2)CC1 [Compound 196, N-[1-(4-chloro-3-fluoro-phenyl)pyrazol-3-yl]-1-phenyl-cyclopropanecarboxamide] | > 5000 nM | – |
| CC(C)(O)c1ncc(-n2ccc(NC(=O)C3(c4ccccc4F)CC3)n2)cn1 [Compound 382, 1-(2-fluorophenyl)-N-[1-[2-(1-hydroxy-1-methyl-ethyl)pyrimidin-5-yl]pyrazol-3-yl]cyclopropanecarboxamide] | – | IC50 [2]: > 5000 nM |
| O=C(Nc1ccn(-c2cncc(OC(F)F)c2)n1)C1(c2cccs2)CC1 [Compound 484, N-[1-[5-(difluoromethoxy)-3-pyridyl]pyrazol-3-yl]-1-(2-thienyl)cyclopropanecarboxamide] | > 5000 nM | – |
| CC1CC1(C(=O)Nc1ccn(-c2cncc(Cl)c2)n1)c1ncccc1F (stereo not shown) [Compound 504, N-[1-(5-chloro-3-pyridyl)pyrazol-3-yl]-1-(3-fluoro-2-pyridyl)-2-methyl-cyclopropanecarboxamide] | 120 nM | – |
| O=C(Nc1ccn(-c2ccnc(F)c2)n1)C1(c2ccccc2)CC1(F)F (single isomer, unassigned) [Compound 369] | – | IC50 (13C-labeled C26:0 LPC, 48 hours): 36 nM |
